Source: patent publication US12123010B2, “Plants having increased tolerance to herbicides” (BASF SE, priority 2017, dated 2024)
Values joined by “and” are separate entries in the source; they are usually repeats but may differ in a detail not shown here. Equal entries are not always repeated.

Legend:
[1] = tested on: Variant PPO Enzyme R128A, F420V (Amaranthus PPO2); assay: biochemical; format: biochemical; conditions: variant R128A, F420V vs wild type
[2] = tested on: Variant PPO Enzyme F420V (Amaranthus PPO2); format: biochemical; conditions: variant F420V vs wild type
[3] = tested on: Variant PPO Enzyme R128A, F420M (Amaranthus PPO2); format: biochemical; conditions: variant R128A, F420M vs wild type
[4] = tested on: Transgenic T2 Arabidopsis plants and ARBTH WT MC24 non-transgenic; assay: Greenhouse post spray test, injury 14 DAT (Tables ii, iii); format: in vivo, Arabidopsis thaliana;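 note: value is percent injury to the sprayed plants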
[5] = tested on: Variant PPO Enzyme L397Q, F420M (Amaranthus PPO2); format: biochemical; conditions: variant L397Q, F420M vs wild type
[6] = tested on: Variant PPO Enzyme F420M (Amaranthus PPO2); assay: biochemical; format: biochemical; conditions: variant F420M vs wild type
[7] = molecular target: Wild Type PPO Enzyme (Amaranthus PPO2, SEQ ID NO: 1) (Amaranthus tuberculatus, UniProt Q0NZW9); assay: PPO enzyme assay (recombinant), wild type; format: biochemical
Sequence of Wild Type PPO Enzyme (Amaranthus PPO2, SEQ ID NO: 1) (Q0NZW9 1-534): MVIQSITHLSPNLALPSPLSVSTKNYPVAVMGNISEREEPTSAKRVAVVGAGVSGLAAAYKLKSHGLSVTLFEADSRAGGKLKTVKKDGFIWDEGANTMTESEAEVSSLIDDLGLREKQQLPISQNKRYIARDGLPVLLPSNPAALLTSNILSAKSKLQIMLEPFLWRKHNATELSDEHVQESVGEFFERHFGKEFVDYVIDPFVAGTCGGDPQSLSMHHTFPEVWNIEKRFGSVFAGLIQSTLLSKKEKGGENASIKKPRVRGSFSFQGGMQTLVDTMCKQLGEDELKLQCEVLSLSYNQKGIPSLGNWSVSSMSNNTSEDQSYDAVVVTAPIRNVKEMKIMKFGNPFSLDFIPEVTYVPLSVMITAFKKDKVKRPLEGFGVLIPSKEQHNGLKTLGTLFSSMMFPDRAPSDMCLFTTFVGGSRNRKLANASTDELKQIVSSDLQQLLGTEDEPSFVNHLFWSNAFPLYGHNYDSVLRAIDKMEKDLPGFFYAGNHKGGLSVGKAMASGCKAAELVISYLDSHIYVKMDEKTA

[8] = tested on: Transgenic T2 or T3 Soybean plants harbouring PPO inhibitor tolerance trait and Jake non transgenic; assay: Soybean greenhouse post spray, injury score 7 DAT; conditions: in vivo
Description: Soybean cv Jake is transformed as previously described by Siminszky et al., Phytochem Rev. 5:445-458 (2006). After regeneration, transformants are transplanted to soil in small pots, placed in growth chambers (16 hr day/8 hr night; 25° C. day/23° C. night; 65% relative humidity; 130-150 microE m-2 s-1) and subsequently tested for the presence of the T-DNA via Taqman analysis. After a few weeks, healthy, transgenic positive, single copy events are transplanted to larger pots and allowed to grow in the growth chamber. An optimal shoot for cutting is about 3-4 inches tall, with at least two nodes present. Each cutting is taken from the original transformant (mother plant) and dipped into rooting hormone powder (indole-3-butyric acid, IBA). The cutting is then placed in oasis wedges inside a bio-dome. The mother plant is taken to maturity in the greenhouse and harvested for seed. Wild type cuttings are also taken simultaneously to serve as negative controls. The cuttings are kept in the bio-dome for 5-7 days and then transplanted to 3 inch pots and then acclimated in the growth chamber for two more days. Subsequently, the cuttings are transferred to the greenhouse, acclimated for approximately 4 days prior to spray. […] Herbicide injury evaluations are taken at 2, 7, 14 and 21 days after treatment. […]

[9] = tested on: Transgenic T2 Arabidopsis plants harboring PPO inhibitor tolerance trait; assay: Lab based germination assay in 48-well plates (Table i); format: in vivo, Arabidopsis thaliana; conditions: in comparison to wild type plants
[10] = tested on: Variant PPO Enzyme L397Q, F420V (Amaranthus PPO2); format: biochemical; conditions: variant L397Q, F420V vs wild type
[11] = tested on: Variant PPO Enzyme L397Q (Amaranthus PPO2); format: biochemical; conditions: variant L397Q vs wild type

CCOC(=O)COc1ncccc1Oc1cc(-n2c(=O)cc(C(F)(F)F)n(C)c2=O)c(F)cc1Cl [Uracilpyridine 1, ethyl 2-[[3-[2-chloro-4-fluoro-5-[3-methyl-2,6-dioxo-4-(trifluoromethyl)pyrimiclin-1-yl]phenoxy]-2-pyridyl]oxy]acetate]
Tolerance Factor (R/S) [1]: 915 and 1579 | Tolerance Factor (R/S) [2]: 374 | Tolerance Factor (R/S) [3]: 347 | injury (%) ([4]; Table ii, ALOMY_PPO2_R137L_F438V event F, 50 g ai/ha): 20% | injury (%) ([4]; Table ii, ALOMY_PPO2_R137L_F438V event F, 100 g ai/ha): 33% | injury (%) ([4]; Table ii, ALOMY_PPO2_R137L_F438V event F, 200 g ai/ha): 65% | injury (%) ([4]; Table ii, ALOMY_PPO2_R137L_F438V event G, 50 g ai/ha): 5% | injury (%) ([4]; Table ii, ALOMY_PPO2_R137L_F438V event G, 100 g ai/ha): 75% | injury (%) ([4]; Table ii, ALOMY_PPO2_R137L_F438V event G, 200 g ai/ha): 28% | injury (%) ([4]; Table ii, ALOMY_PPO2_TP_AMATU_PPO2_R128M_F420I event R, 50 g ai/ha): 60% | injury (%) ([4]; Table ii, ALOMY_PPO2_TP_AMATU_PPO2_R128M_F420I event R, 100 g ai/ha): 92% | injury (%) ([4]; Table ii, ALOMY_PPO2_TP_AMATU_PPO2_R128M_F420I event R, 200 g ai/ha): 84% | injury (%) ([4]; Table ii, AMATU_PPO2_R128A_F420M event Q, 50 g ai/ha): 55% | injury (%) ([4]; Table ii, AMATU_PPO2_R128A_F420M event Q, 100 g ai/ha): 60% | injury (%) ([4]; Table ii, AMATU_PPO2_R128A_F420M event Q, 200 g ai/ha): 75% | injury (%) ([4]; Table ii, AMATU_PPO2_R128M_F420I event K, 50 g ai/ha): 60% | injury (%) ([4]; Table ii, AMATU_PPO2_R128M_F420I event K, 100 g ai/ha): 73% | injury (%) ([4]; Table ii, AMATU_PPO2_R128M_F420I event K, 200 g ai/ha): 75% | injury (%) ([4]; Table ii, AMATU_PPO2_TP_hemG event R, 50 g ai/ha): 60% | injury (%) ([4]; Table ii, AMATU_PPO2_TP_hemG event R, 100 g ai/ha): 63% | injury (%) ([4]; Table ii, AMATU_PPO2_TP_hemG event R, 200 g ai/ha): 53% | injury (%) ([4]; Table ii, ARBTH WT MC24 non-transgenic, 50 g ai/ha + 1% MSO): 100% | injury (%) ([4]; Table ii, ARBTH WT MC24 non-transgenic, 100 g ai/ha + 1% MSO): 100% | injury (%) ([4]; Table ii, ARBTH WT MC24 non-transgenic, 200 g ai/ha + 1% MSO): 100% | injury (%) ([4]; Table iii, ALOMY_PPO2_R137L_F438M (unnamed lines), 50 g ai/ha): 0% | injury (%) ([4]; Table iii, AMATU_PPO2_L397Q_F420V (unnamed lines), 50 g ai/ha): 40% and 75% | injury (%) ([4]; Table iii, AMATU_PPO2_L397Q_F420V (unnamed lines), 100 g ai/ha): 85% and 65% | injury (%) ([4]; Table iii, AMATU_PPO2_R128A_F420I (unnamed lines), 50 g ai/ha): 60% and 70% and 75% | injury (%) ([4]; Table iii, AMATU_PPO2_R128A_F420I (unnamed lines), 100 g ai/ha): 95% and 65% and 80% and 60% | injury (%) ([4]; Table iii, AMATU_PPO2_R128A_F420L (unnamed lines), 100 g ai/ha): 60% and 90% and 95% and 80% | injury (%) ([4]; Table iii, AMATU_PPO2_R128A_F420V (unnamed lines), 50 g ai/ha): 95% and 90% and 55% and 65% | injury (%) ([4]; Table iii, AMATU_PPO2_R128A_F420V (unnamed lines), 100 g ai/ha): 80% and 95% and 98% | injury (%) ([4]; Table iii, ARBTH WT MC 24 (non-transgenic), 50 g ai/ha + 1% MSO): 100% | injury (%) ([4]; Table iii, ARBTH WT MC 24 (non-transgenic), 100 g ai/ha + 1% MSO): 100% | Tolerance Factor (R/S) [5]: 2418 | Tolerance Factor (R/S) [6]: 215 and 265 | IC50 [7]: 177 pM | injury (0-9) [8]: 3 and 2 and 4 and 0 (No Injury) | Tolerance Factor ([9]; construct ARBTH_PPO1_S305L_Y426M (Arabidopsis thaliana)): 250 | Tolerance Factor ([9]; construct ARBTH_PPO1_WT (Arabidopsis thaliana)): 50 | Tolerance Factor (R/S) [10]: 12739 | Tolerance Factor (R/S) [11]: 13
